Each molecule was assayed on HBsAg secretion, HepG2-Clone42 cells (Tet-inducible HBV-expressing, HBV ayw strain) (assay: HBsAg assay (HBsAg ELISA, secreted HBV sAg from HepG2-Clone42 cells)). Conditions: Hepatitis B virus, read-out: HBsAg (nM), EC50 = concentration at which HBsAg secretion was reduced 50% compared to DMSO control.
Type: cell-based
How it was run: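 HepG2-Clone42 cells (Tet-inducible, integrated 1.3-mer HBV ayw) treated 24 h post-seeding with five-fold serial compound dilutions, 0.5% DMSO final. Secreted HBsAg measured by ELISA (A450); EC50 for 50% reduction vs DMSO control after background subtraction, four-parameter logistic fit.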

SMILES	EC50
COCC1(COc2cccc3c4n(nc23)CC(C(C)(C)C)n2cc(C(=O)O)c(=O)cc2-4)CCC1 (stereo not shown) [Example 2.4, 6-(tert-butyl)-10-((1-(methoxymethyl)cyclobutyl)methoxy)-2-oxo-6,7-dihydro-2H-pyrido[2′,1′:3,4]pyrazino[1,2-b]indazole-3-carboxylic Acid]	> 100 nM
CC(C)(C)C1Cn2nc3c(OCCOCC(F)(F)F)cccc3c2-c2cc(=O)c(C(=O)O)cn21 (stereo not shown) [Example 2.3, 6-(tert-butyl)-2-oxo-10-(2-(2,2,2-trifluoroethoxy)ethoxy)-6,7-dihydro-2H-pyrido[2′,1′:3,4]pyrazino[1,2-b]indazole-3-carboxylic Acid]	< 1 nM
CC(C)(C)C1Cn2nc3c(OCC4CC(F)(F)C4)cccc3c2-c2cc(=O)c(C(=O)O)cn21 (racemic) [Example 2.39, 6-(tert-butyl)-10-((3,3-difluorocyclobutyl)methoxy)-2-oxo-6,7-dihydro-2H-pyrido[2′,1′:3,4]pyrazino[1,2-b]indazole-3-carboxylic Acid]	< 1 nM
CC(C)(C)C1Cn2nc3c(OC[C@@H]4CCC(=O)N4)cccc3c2-c2cc(=O)c(C(=O)O)cn21 (single isomer, unassigned) [Example 2.33-I]	> 100 nM

Same assay, conditions: read-out: HBsAg, EC50 = concentration at which HBsAg secretion was reduced 50% compared to DMSO control

SMILES	EC50
COCC(C)(C)C1Cn2nc3c(OC)cccc3c2-c2cc(=O)c(C(=O)O)cn21 (single isomer, unassigned) [Example 4.1-II, 10-methoxy-6-(1-methoxy-2-methylpropan-2-yl)-2-oxo-6,7-dihydro-2H-pyrido[2′,1′:3,4]pyrazino[1,2-b]indazole-3-carboxylic Acid]	> 100 nM
CC(C)(C)C1Cn2nc3ccccc3c2-c2cc(=O)c(C(=O)O)cn21 (single isomer, unassigned) [Example 1.5-II, 6-(tert-butyl)-2-oxo-6,7-dihydro-2H-pyrido[2′,1′:3,4]pyrazino[1,2-b]indazole-3-carboxylic acid]	> 100 nM
COCCCOc1cccc2c3n(nc12)C1CCC(C)(C)C1n1cc(C(=O)O)c(=O)cc1-3 (single isomer, unassigned) [Example 6.1-I, 12-(3-methoxypropoxy)-3,3-dimethyl-7-oxo-2,3,3a,14a-tetrahydro-1H,7H-cyclopenta[5,6]pyrido[2′,1′:3,4]pyrazino[1,2-b]indazole-6-carboxylic Acid]	> 100 nM

Reference: US10975078B2, “Fused indazole pyridone compounds as antivirals” (priority 2017, dated 2021)
